# Where “and” joins values, the source holds several entries; their conditions need not be identical. Identical values can stand only once. ± gives the expanded uncertainty stated by the source.
# Settings: Liquid, Calculated from knudsen effusion weight loss
structure (smiles),measurement,setting,value
[Ag+].[Br-] [silver bromide],vapor or sublimation pressure,829.9 K,0.000109 ± 4.4e-05 kPa [middle of 4 runs]
same,vapor or sublimation pressure,849.9 K,0.000184 ± 7.4e-05 kPa [middle of 4 runs]
same,vapor or sublimation pressure,869.9 K,0.000316 ± 0.00013 kPa [middle of 4 runs]
same,vapor or sublimation pressure,889.9 K,0.00057 ± 0.00023 kPa and 0.000464 ± 0.00019 kPa and 0.000529 ± 0.00021 kPa
same,vapor or sublimation pressure,890 K,0.000602 ± 0.00024 kPa
same,vapor or sublimation pressure,909.9 K,0.000855 ± 0.00034 kPa and 0.000958 ± 0.00038 kPa and 0.000842 ± 0.00034 kPa
same,vapor or sublimation pressure,910 K,0.001143 ± 0.00047 kPa
same,vapor or sublimation pressure,929.9 K,0.001712 ± 0.0007 kPa [middle of 4 runs]

# From the NIST ThermoML archive (doi:10.1016/j.tca.2018.10.027)
